# Test results from patent publication US7709511B2, “Benzothiazolone derivatives” (AstraZeneca AB, priority 2005, dated 2010).
# Counter-ions that a name gives are not always drawn.
# Molecular target: T1, recombinant human α1D receptor (Homo sapiens, UniProt P25100)
# T1 construct: made in house; host or cells: HEK293 cells (membranes)
# T1 sequence (P25100 1-572): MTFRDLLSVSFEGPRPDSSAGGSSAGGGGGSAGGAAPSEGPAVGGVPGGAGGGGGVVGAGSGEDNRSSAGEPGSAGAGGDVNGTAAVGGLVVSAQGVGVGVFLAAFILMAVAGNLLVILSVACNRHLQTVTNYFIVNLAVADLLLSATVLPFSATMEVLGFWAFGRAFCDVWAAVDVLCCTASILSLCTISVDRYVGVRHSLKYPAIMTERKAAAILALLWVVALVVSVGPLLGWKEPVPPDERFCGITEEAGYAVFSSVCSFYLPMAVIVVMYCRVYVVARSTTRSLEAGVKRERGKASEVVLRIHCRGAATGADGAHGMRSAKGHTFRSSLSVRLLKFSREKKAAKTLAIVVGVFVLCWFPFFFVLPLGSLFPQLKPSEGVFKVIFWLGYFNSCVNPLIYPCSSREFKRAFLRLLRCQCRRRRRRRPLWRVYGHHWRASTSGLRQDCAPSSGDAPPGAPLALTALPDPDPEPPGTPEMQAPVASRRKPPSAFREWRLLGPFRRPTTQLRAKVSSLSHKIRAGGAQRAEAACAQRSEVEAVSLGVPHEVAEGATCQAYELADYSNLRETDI
# Assay: Adrenergic α1D selectivity assay, inhibition of [3H]-prazosin binding to membranes
# Details: HEK293 membranes, [3H]-prazosin 0.3 nM; read-out: α1 bind pIC50 (converted)
# Protocol: Membranes were prepared from human embryonic kidney 293 (HEK293) cells expressing recombinant human α1D receptor. These were diluted in Assay Buffer (50 mM HEPES, 1 mM EDTA, 0.1% gelatin, pH 7.4) to provide a final concentration of membranes that gave a clear window between maximum and minimum specific binding.
# Assays were performed in U-bottomed 96-well polypropylene plates. 10 μL [^3H]-prazosin (0.3 nM final concentration) and 10 μL of test compound (10× final concentration) were added to each test well. For each assay plate 8 replicates were obtained for [^3H]-prazosin binding in the presence of 10 μL vehicle (10% (v/v) DMSO in Assay Buffer; defining maximum binding) or 10 μL BMY7378 (10 μM final concentration; defining non-specific binding (NSB)). Membranes were then added to achieve a final volume of 100 μL. The plates were incubated for 2 hours at room temperature and then filtered onto PEI coated GF/B filter plates, pre-soaked for 1 hour in Assay Buffer, using a 96-well plate Tomtec cell harvester. Five washes with 250 μL wash buffer (50 mM HEPES, 1 mM EDTA, pH 7.4) were performed at 4° C. to remove unbound radioactivity. The plates were dried then sealed from underneath using Packard plate sealers and MicroScint-O (50 μL) was added to each well. The plates were sealed (TopSeal A) and filter-bound radioactivity was measured with a scintillation counter (TopCount, Packard BioScience) using a 3-minute counting protocol.
# Total specific binding (B0) was determined by subtracting the mean NSB from the mean maximum binding. NSB values were also subtracted from values from all other wells. […] Data was fitted to a four parameter logistic equation to determine the compound potency, which was expressed as pIC50 (negative log molar concentration inducing 50% inhibition of [^3H]-prazosin binding).
row,SMILES,IC50
1,"CCN(CC)CCN(CCNCCc1ccc(O)c2[nH]c(=O)sc12)C(=O)CCOCCc1cccc(C)c1 [Example 28, N-[2-(Diethylamino)ethyl]-N-(2-{[2-(4-hydroxy-2-oxo-2,3-dihydro-1,3-benzothiazol-7-yl)ethyl]amino}ethyl)-3-[2-(3-methylphenyl)ethoxy]propanamide]",1260 nM
2,"CCN(CC)CCN(CCNCCc1ccc(O)c2[nH]c(=O)sc12)C(=O)CCOCCc1ccc(Cl)cc1 [Example 26, 3-[2-(4-Chlorophenyl)ethoxy]-N-(2-diethylaminoethyl)-N-{2-[2-(4-hydroxy-2-oxo-2,3-dihydro-1,3-benzothiazol-7-yl)ethylamino]ethyl}propanamide dihydrobromide]",3160 nM
